The supplement of paper PMC10307832

Experiments:
Assay in all cases: relative viability (nuclei count vs DMSO), 5 days (fraction); higher = more cells survive
RU-SKI 43 + Lapatinib = compound: CC[C@@H](C)CNCC(=O)N1CCC2=C([C@@H]1COC3=CC=CC(=C3)C)C=CS2 [RU-SKI 43] + CS(=O)(=O)CCNCc1ccc(-c2ccc3ncnc(Nc4ccc(OCc5cccc(F)c5)c(Cl)c4)c3c2)o1 [Lapatinib] (partner 2 µM)
How it was run: (§1)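 One day after seeding in 1536-well plates, lung cancer cell lines were dosed by pin tool. Dosing was either single-drug or a fixed anchor-drug dose plus five library-drug doses (not always all listed) in √10 steps. After 5 days, nuclei were stained in one fix-and-stain step and counted on 4× images, and relative viability is the nuclei count of treated wells over that of vehicle wells, given as the median of duplicate plates.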

RU-SKI 43 + Pictilisib = compound: CC[C@@H](C)CNCC(=O)N1CCC2=C([C@@H]1COC3=CC=CC(=C3)C)C=CS2 [RU-SKI 43] + CS(=O)(=O)N1CCN(Cc2cc3nc(-c4cccc5[nH]ncc45)nc(N4CCOCC4)c3s2)CC1 [Pictilisib] (partner 1 µM)
How it was run: as §1

MK-8033 + Pictilisib = compound: Cn1cc(-c2cnc3ccc4ccc(CS(=O)(=O)NCc5ccccn5)cc4c(=O)c3c2)cn1 [MK-8033] + CS(=O)(=O)N1CCN(Cc2cc3nc(-c4cccc5[nH]ncc45)nc(N4CCOCC4)c3s2)CC1 [Pictilisib] (partner 1 µM)
How it was run: as §1

MK-8033 + Decitabine = compound: Cn1cc(-c2cnc3ccc4ccc(CS(=O)(=O)NCc5ccccn5)cc4c(=O)c3c2)cn1 [MK-8033] + Nc1ncn([C@H]2C[C@H](O)[C@@H](CO)O2)c(=O)n1 [Decitabine] (partner 2 µM)
How it was run: as §1

Row | Cell Line | relative viability (RU-SKI 43 + Lapatinib; first compound 0.1 µM) | relative viability (RU-SKI 43 + Lapatinib; first compound 0.3162 µM) | relative viability (RU-SKI 43 + Lapatinib; first compound 1 µM) | relative viability (RU-SKI 43 + Lapatinib; first compound 3.162 µM) | relative viability (RU-SKI 43 + Lapatinib; first compound 10 µM) | relative viability (RU-SKI 43 + Pictilisib; first compound 0.1 µM) | relative viability (RU-SKI 43 + Pictilisib; first compound 0.3162 µM) | relative viability (RU-SKI 43 + Pictilisib; first compound 1 µM) | relative viability (RU-SKI 43 + Pictilisib; first compound 3.162 µM) | relative viability (RU-SKI 43 + Pictilisib; first compound 10 µM) | relative viability (MK-8033 + Pictilisib; first compound 0.02 µM) | relative viability (MK-8033 + Pictilisib; first compound 0.06325 µM) | relative viability (MK-8033 + Pictilisib; first compound 0.2 µM) | relative viability (MK-8033 + Pictilisib; first compound 0.6325 µM) | relative viability (MK-8033 + Pictilisib; first compound 2 µM) | relative viability (MK-8033 + Decitabine; first compound 0.02 µM) | relative viability (MK-8033 + Decitabine; first compound 0.06325 µM) | relative viability (MK-8033 + Decitabine; first compound 0.2 µM) | relative viability (MK-8033 + Decitabine; first compound 0.6325 µM) | relative viability (MK-8033 + Decitabine; first compound 2 µM)
1 | NCI-H1975 | 0.968 | 1.32 | 0.867 | 0.853 | 1.02 | 0.293 | 0.289 | 0.294 | 0.273 | 0.254 | 0.302 | 0.266 | 0.269 | 0.307 | 0.315 | 0.351 | 0.328 | 0.358 | 0.342 | 0.427
2 | NCI-H1993 | 0.739 | 0.859 | 0.717 | 0.822 | 1.8 | 0.718 | 0.597 | 0.769 | 0.964 | 0.719 | 0.842 | 0.75 | 0.669 | 1 | 0.763 | 0.488 | 0.624 | 0.557 | 0.563 | 0.546
3 | NCI-H2009 | 0.899 | 0.837 | 0.901 | 0.964 | 0.905 | 0.788 | 1.06 | 0.9 | 0.883 | 0.773 | 0.833 | 0.716 | 0.732 | 0.775 | 0.771 | 0.376 | 0.318 | 0.351 | 0.372 | 0.403
4 | NCI-H2023 | 0.773 | 0.808 | 1.05 | 0.849 | 0.726 | 0.269 | 0.213 | 0.236 | 0.264 | 0.212 | 0.264 | 0.194 | 0.186 | 0.219 | 0.179 | 0.217 | 0.203 | 0.213 | 0.247 | 0.212
5 | NCI-H2085 | 0.672 | 0.719 | 0.836 | 0.674 | 0.686 | 0.476 | 0.353 | 0.473 | 0.409 | 0.469 | 0.417 | 0.369 | 0.532 | 0.57 | 0.395 | 0.53 | 0.571 | 0.475 | 0.544 | 0.559
6 | NCI-H2087 | 0.916 | 1.12 | 0.947 | 1.09 | 0.804 | 0.797 | 0.992 | 1.16 | 0.992 | 0.944 | 0.912 | 0.814 | 0.737 | 0.994 | 0.692 | 0.223 | 0.159 | 0.289 | 0.272 | 0.277
7 | NCI-H2126 | 0.797 | 0.63 | 0.823 | 0.779 | 0.766 | 0.491 | 0.407 | 0.549 | 0.492 | 0.507 | 0.491 | 0.393 | 0.455 | 0.515 | 0.491 | 0.593 | 0.561 | 0.565 | 0.568 | 0.593
8 | NCI-H2170 | 0.259 | 0.241 | 0.292 | 0.273 | 0.256 | 0.293 | 0.256 | 0.334 | 0.282 | 0.278 | 0.382 | 0.291 | 0.293 | 0.32 | 0.302 | 0.461 | 0.405 | 0.458 | 0.479 | 0.468
